Paper PMC10949195, “Exponential Combination of a and e/g Intracellular Peptide Libraries Identifies a Selective ATF3 Inhibitor” (ACS Chemical Biology, 2024)

What was measured:
[1] = Serum stability; assay type: in vitro ADME; details: human serum (Merck), 75 uL of 600 uM stock in 1425 uL serum, 37 °C, 3-day time course; LC-MS; averages of three experimental repeats
Method: TableS1: Shown are peptide permeability assay on ATF3W-aeg. […]
peptide holding on the membrane.
Peptide permeability assay: To evaluate the peptide permeability, the BD™ pre-coated PAMPA plate system was employed. The 300uL of 200uM peptide in PBS buffer were added in the well of the receiver plate, and slowly placed the filter plate with the 200uL PBS buffer per well on the receiver plate. The peptide concentrations in both plates were determined by UV spectroscopy after the assembly plate system were incubated at room temperature for 5 hours, and the peptide permeability and mass retention were calculated by using the PAMPA plate system formula which recommended in the manufacture manual.
Permeability (in unit of cm/s):
Mass retention: 1 - [CD(t)*VD + CA(t)*VA ]/( C0 * VD)
C0 = initial compound concentration in donor well (mM)
CD(t) = compound concentration in donor well at time t (mM)
CA(t) = compound concentration in acceptor well at time t (mM)
VD = donor well volume = 0.3 mL
VA = acceptor well volume = 0.2 mL […]
Serum stability: The quantity of peptide detected by LC-MS is plotted relative to the starting point […]
Fig S5: Shown are serum stability of ATF3W-aeg. The quantity of peptide detected by LC-MS is plotted […]
The supernatant was analysed by LC-MS, and the peptide was quantified as the sum of the peaks with the two largest intensities1.

[2] = CD thermal denaturation of peptide in isolation; assay type: physicochemical; details: CD at 222 nm; 150 μM total peptide; 10 mM potassium phosphate, 100 mM potassium fluoride, pH 7
Excerpt: Following the observed significant increase in global secondary structure content for the ATF3-ATF3W_aeg complex relative to component peptides (Figure 6), we next analyzed the stability of the complex by undertaking thermal denaturation experiments (Figure 7). […] Moreover, consistent with spectral data, the clear increase from the average profile of the component peptides relative to that of the measured is most pronounced in the combined construct (Figure 7, red hash vs black). This provides robust additional evidence for a preferential interaction between ATF3 and ATF3W_aeg that is improved over either the core a or electrostatic e/g constructs.
Shown are thermal stabilities of peptide pairs measured via temperature dependence of the CD signal at 222 nm. The thermal denaturation profiles for (a) ATF3-ATF3W_a, (b) ATF3-ATF3W_eg, and (c) ATF3-ATF3W_aeg show a substantial increase in the transition midpoint (Tm = 59 °C) relative to component peptides (black vs red hash). Experiments were performed in 10 mM potassium phosphate and 100 mM potassium fluoride (pH 7.0). All spectra were recorded at 1 °C increments at a total peptide concentration of 150 μM and fitted to a two-state denaturation model. […]

[3] = tested on: M2 macrophages differentiated from the human THP-1 monocytic cell line; assay: THP-1 polarization assay and CCL-4 ELISA; assay type: cell-based; details: M2 macrophages from THP-1 (IL-4 polarized); 20 μM peptide with NLS-TAT appendage; 48 h; versus untreated
Excerpt: ATF3 is a transcriptional repressor that regulates both the extent and duration of pro-inflammatory gene expression.[17] Specifically, ATF3 has been implicated in the transcriptional repression of chemokines including chemokine (C–C motif) ligand 4 (CCL4),[18] also known as macrophage inflammatory protein (MIP-1β), which promotes recruitment of additional immune cells to inflamed tissues. In the context of cancer, ATF3 activity counters antitumor immunity and promotes tumor growth. We therefore explored the effect of the ATF3W-aeg antagonist peptide on CCL4 expression in M2 anti-inflammatory macrophages differentiated from the human THP-1 monocytic cell line. […]
Figure 10 ATF3W-aeg peptide stimulates expression of pro-inflammatory cytokine in M2 macrophages. CCL4 protein levels were measured by ELISA from supernatants of M2 macrophage cultures treated with either 20 μM ATF3W-aeg or negative control peptide (****p < 0.0001). […]
THP-1 cells were seeded in 12-well format at a concentration of 5 × 10^5 cells/well and treated with 7.5 ng/mL Phorbol 12-Myristate 13-Acetate (PMA, Sigma-Aldrich) in RPMI media supplemented with 10% FBS and 55 μM β-mercaptoethanol (BME). […] After 48 h, supernatants were collected and clarified by centrifugation, and the CCL-4 concentration was assessed by ELISA (MIP-1b Human Instant ELISA Kit, ThermoFisher Scientific) according to the manufacturer’s protocol.

Ac-ELAALEQKAYALKQENAALEKEVAALEQKIAALK-NH2 (N-terminus and C-terminus assumed) [ATF3W_aeg]
serum stability, peptide quantity relative to starting point [1]: completely degraded | self-association in isolation (thermal denaturation profile) [2]: inability of ATF3W_aeg to form a stable homodimer in isolation | effect on CCL4 expression (protein in supernatant, ELISA) [3]: significantly increased CCL4 expression
